Measurements published in PMC13327496, “The X‐Ray Crystal Structure of BorF, the Flavin Reductase Subunit of a Two‐Component Flavin‐Dependent Tryptophan Halogenase” (Proteins, 2026).
Blank lines part the entries; values can stand above or below the compound they belong to.

What was measured:
BorF = biological target: T1, BorF (uncultured bacterium, UniProt M9QXS1); assay: NADH depletion at […] nm; format: biochemical; details: 25 mM HEPES pH 7.5, room temperature
T1 construct: full-length residues 1-196 plus an N-terminal Pro after PreScission cleavage; His6-MBP tag removed; synthetic gene, E. coli Rosetta2(DE3) pLysS; homodimer
T1 sequence (M9QXS1 1-196): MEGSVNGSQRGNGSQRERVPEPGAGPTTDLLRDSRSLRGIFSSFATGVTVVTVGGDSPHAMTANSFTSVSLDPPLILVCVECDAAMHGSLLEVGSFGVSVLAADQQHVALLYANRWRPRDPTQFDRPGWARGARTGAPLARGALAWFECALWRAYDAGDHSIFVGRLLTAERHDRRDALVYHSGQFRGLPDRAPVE

[1] = biological target: BorF (soil bacterial metagenome from the Anza-Borrego desert); assay: SEC; BorF alone after tag cleavage, Superdex 200, 20 mM Tris pH 7.5, 150 mM NaCl; single peak at 78.2 mL

Compound: Cc1cc2nc3c(=O)[nH]c(=O)nc-3n(C[C@H](O)[C@H](O)[C@H](O)COP(=O)(O)O)c2cc1C [FMN]
NADH depletion at 340 nm (BorF; apo-BorF, 25 μM FMN, 100 μM NADH): BorF utilizes FAD as a substrate but is also able to reduce FMN and riboflavin

Compound: NC(=O)C1=CN([C@@H]2O[C@H](COP(=O)(O)OP(=O)(O)OC[C@H]3O[C@@H](n4cnc5c(N)ncnc54)[C@H](O)[C@@H]3O)[C@@H](O)[C@H]2O)C=CC1 [NADH]
NADH depletion at 340 nm (BorF; apo-BorF 0.2 μM, 25 μM FAD): BorF oxidizes NADH to NAD^+, as determined by NADH depletion monitored by absorbance

stoichiometry N [1]: 2
Compound: BorF (enzyme)
